Where two headings read alike, the source gives them in different places.
Columns and labels:
[1] = system: RKO colon cancer cells; experiment: alamarBlue cytotoxicity, RKO parental; assay type: cell-based, human; conditions: Drug Selection None, read-out: NB1011-IC50
Description: (§1) Growth Inhibition Studies. Cells growing exponentially were transferred to 384-well flat bottom tissue culture plates. All cell types were plated at a density of 500 cells per well in 25 μL of complete medium (RPMI 1640+10% fetal bovine serum+antibiotics/antimycotics). After 24 hours (day 0), 25 μL of complete medium containing the experimental compounds over the dose range of 10^ñ3 to 10^ñ10 M were added in triplicate. […] 5 μL of the redox indicator, alamarBlue, was added to each well (10% v/v). After 4 hours incubation at 37° C., fluorescence was monitored at 535 nm excitation and 595 nm emission.
(§2) Concentration vs. relative fluorescence units (RFU) were plotted, and sigmoid curves were fit using the Hill equation.
(§3) Cells were grown and characterized as described above. TS expression level is relative to CCD18co, a normal colon epithelial cell line. Tritium release is background substracted as described in Methods. ND=Not detectable above background.

[2] = system: RKO colon cancer cells, TDX selection; experiment: alamarBlue cytotoxicity, RKO TDX-selected; assay type: cell-based, human; conditions: Drug Selection TDX, read-out: NB1011-IC50
Description: as §1, §2, §3

[3] = system: NHEPF (Liver) normal cells; experiment: alamarBlue growth inhibition, NHEPF; assay type: cell-based, human; conditions: 120 hours
Description: as §1, §2

[4] = system: collagen induced arthritis; experiment: Collagen induced arthritis in DBA/1 mice; assay type: in vivo, mouse; conditions: vs saline-treated control; NB1011 2.5 mg per day intraperitoneal
Description: Arthritis was induced in male DBA/1 mice (8-10 weeks old) by intradermal injection of bovine type II collagen, purified in-house at the Kennedy Institute of Rheumatology as previously described (Miller, E. J. et al. (1972)). Collagen was administered in complete Freund's adjuvant (Difco, Detroit, Mich.). Onset of arthritis is expected to be variable. Arthritis onset is considered to occur on the day that swelling and/or erythema were observed. Clinical score is a composite of disease severity and the number of limbs affected, and is monitored daily from onset of disease and used as an assessment of disease progress. An example for scoring is: 0, Normal; 1, slight swelling with erythema; 2, pronounced swelling; 3, joint rigidity. In addition, the extent of paw swelling reflects the degree of edema in affected limbs.
NB1011 was administered daily by intraperitoneal administration at 2.5 mg total dose per day.
Following immunization with collagen, mice were maintained until a significant clinical score for disease progression was achieved (between 2.5 and 3.5). Mice were then treated with control saline injections, NB1011, or with anti-TNF antibody as a positive control. […] Paw swelling is an alternative measure of CIA disease severity.

[5] = system: H630 colon cancer cells, TDX selection; experiment: alamarBlue cytotoxicity, H630 TDX-selected; assay type: cell-based, human; conditions: Drug Selection TDX, read-out: NB1011-IC50
Description: as §1, §2, §3

[6] = system: N1S1 cells, 5FU selection; experiment: alamarBlue cytotoxicity, N1S1 5FU-selected; assay type: cell-based; conditions: N1S1, Drug Selection 5FU; read-out: NB1011-IC50
Description: as §1, §2, §3

[7] = system: MDAMB468 (Breast) tumor cells; experiment: alamarBlue growth inhibition, MDAMB468; assay type: cell-based, human; conditions: 120 hours
Description: as §1, §2

[8] = system: HT1080 (Colon) tumor cells; experiment: alamarBlue growth inhibition, HT1080; assay type: cell-based, human; conditions: 120 hours
Description: as §1, §2

[9] = system: MCF7 TDX/1011 cells (MCF7 TDX selected for resistance to NB1011); experiment: alamarBlue cytotoxicity, MCF7 TDX/1011; assay type: cell-based, human
Description: as §1, §2
Reversal of Resistance. The origin and characteristics of the human breast cancer MCF7 TDX cell line have been previously described (Drake, et al. (1996)). Briefly, MCF-7 breast cancer cells were selected in vitro for resistance to Tomudex by continuous exposure to stepwise increases in TDX concentrations up to 2.0 μM. […] After a dramatic initial cell killing effect, resistant colonies emerged, and vigorously growing monolayers were formed. TS protein level and IC50 for 5-FU, TDX, and NB1011 were determined for the resultant MCF7 TDX/1011 cell line as described in above by western blot and the alamarBlue cytotoxicity assay, respectively.

[10] = system: MDAMB361 (Breast) tumor cells; experiment: alamarBlue growth inhibition, MDAMB361; assay type: cell-based, human; conditions: 120 hours
Description: as §1, §2

[11] = system: MCIxc (Brain) tumor cells; experiment: alamarBlue growth inhibition, MCIxc; assay type: cell-based, human; conditions: 120 hours
Description: as §1, §2

[12] = system: SKLU1 (Lung) tumor cells; experiment: alamarBlue growth inhibition, SKLU1; assay type: cell-based, human; conditions: 120 hours
Description: as §1, §2

[13] = system: H630 colon cancer cells; experiment: alamarBlue cytotoxicity, H630 parental; assay type: cell-based, human; conditions: Drug Selection None, read-out: NB1011-IC50
Description: as §1, §2, §3

[14] = system: CCD18co normal colon epithelial cells; experiment: alamarBlue growth inhibition, CCD18co; assay type: cell-based, human
Description: as §1, §2

[15] = system: normal and tumor cell types; experiment: cells; conditions: for IC50: read-out: IC50 (μM), Average
Description: Growth Inhibition Studies. Cells growing exponentially were transferred to 384-well flat bottom tissue culture plates. All cell types were plated at a density of 500 cells per well in 25 μL of complete medium (RPMI 1640+10% fetal bovine serum+antibiotics/antimycotics). After 24 hours (day 0), 25 μL of complete medium containing the experimental compounds over the dose range of 10^ñ3 to 10^ñ10 M were added in triplicate. Drug exposure time was 120 hours (day 5), after which growth inhibition was assayed. 5 μL of the redox indicator, alamarBlue, was added to each well (10% v/v). After 4 hours incubation at 37° C., fluorescence was monitored at 535 nm excitation and 595 nm emission.
as §2
Assays were carried out as described in Methods, above. Therapeutic index is calculated as the ratio of the average IC50 for normal cells to the average IC50 for tumor cells. All assays were done at least three times.

[16] = system: TSH/HT1080 cells; experiment: alamarBlue cytotoxicity, HT1080 expressing high GFP-TS; assay type: cell-based, human; conditions: second line printed TSL/HT1080, TS Level 702%
Description: (§4) Cell lines and transfection. HT1080 cells were grown in PRM11640 medium supplemented with 10% fetal calf serum, and transfected with GFP-TS expression vector. 48 hours after, transfection cells were tripsinized and replated in culture medium containing 750 μg/ml G418. After selection with G418 for two weeks, surviving cells were sorted based upon fluorescence expression. One clone with higher fluorescence expression (named as TSH/HT1080) and one clone with lower fluorescence expression (named as TSL/HT1080) were selected and expanded into cells lines. The stable HT1080 cells transfected with pEGFP-C3 were used as control.
(§5) Construction of GFP-TS expression vector. […] The cDNA was cloned into HindIII and KpnI sites of mammalian expression vector pEGFP-C3 (Clontech Laboratories. Inc., Palo Alto, Calif.), in-frame with GFP sequence. The cDNA insert was confirmed by DNA sequencing.
(§6) Growth Inhibition Studies. Cells growing exponentially were transferred to 384-well flat bottom tissue culture plates. All cell types were plated at a density of 500 cells per well in 25 μL of complete medium (RPMI 1640+10% fetal bovine serum+antibiotics/antimycotics). […] After 4 hours incubation at 37° C., fluorescence was monitored at 535 nm excitation and 595 nm emission.
as §2

[17] = system: C/HT1080 cells; experiment: alamarBlue cytotoxicity, control-transfected HT1080; assay type: cell-based, human; conditions: C/HT1080, TS Level 100%
Description: as §4, §5, §6, §2

[18] = system: HCTC (Colon) tumor cells; experiment: alamarBlue growth inhibition, HCTC; assay type: cell-based, human; conditions: 120 hours
Description: as §1, §2

[19] = system: NHA (Brain) normal cells; experiment: alamarBlue growth inhibition, NHA; assay type: cell-based, human; conditions: 120 hours
Description: as §1, §2

[20] = system: W138 (Lung) normal cells; experiment: alamarBlue growth inhibition, W138; assay type: cell-based, human; conditions: 120 hours
Description: as §1, §2

[21] = system: SKCO1 (Colon) tumor cells; experiment: alamarBlue growth inhibition, SKCO1; assay type: cell-based, human; conditions: 120 hours
Description: as §1, §2

Substance “5-(2-Bromovinyl)-2′-deoxyuridine phenyl N-methoxy-L-alaninyl phosphoramidate [NB1011]” has an IC50 [1] of 136 µM, an IC50 [2] of 28 µM and an IC50 [3] of 2080 µM. For the same substance, the “clinical score (disease suppression)” value [4] was “significant disease suppression”, the “paw swelling (disease suppression)” value [4] was “significant disease suppression” and the IC50 [5] was 2.3 µM. It also gave an IC50 [6] of 204 µM, an IC50 [7] of 172 µM and an IC50 [8] of 449 µM. For the same substance, the IC50 [9] was 240 µM, the IC50 [10] was 365 µM and the IC50 [11] was 61 µM. It also gave an IC50 [12] of 270 µM, an IC50 [13] of 414 µM and an IC50 ([14]; Normal Cells: CCD1800 (Colon), alamarBlue, 120 hours) of 562 µM. For the same substance, the IC50 ([14]; normal colon epithelial cells (CCD18co), comparison with 5FUdR) was over 2500 µM, the “improvement in therapeutic index as compared with 5-FU” value ([15]; (2)×(3)) was 6 fold and the “more cytotoxic to tumor cells vs. normal cells” value ([15]; overall, panel) was “about 2 fold”. It also gave an IC50 ([15]; average of the 11 normal cell types) of 561 µM, an IC50 ([15]; average of the 21 tumor cell lines) of 288 µM and an IC50 [16] of 0.8 µM. For the same substance, the IC50 [17] was 320 µM, the IC50 [18] was 280 µM and the IC50 [19] was 839 µM. It also gave an IC50 [20] of 335 µM and an IC50 [21] of 184 µM.
